Where two headings read alike, the source gives them in different places.
Experiments:
[1] = test system: Bloodstream Trypanosoma brucei brucei Lister 427; assay: Trypanosome cell growth dose–response assay (resazurin viability test); type: cell-based
[2] = test system: Bloodstream form culture of T. b. brucei; assay: Cell cycle analysis by FACS (propidium iodide); type: cell-based, Trypanosoma brucei brucei; conditions: concentration twice the EC50, 18 h
Protocol: For cell cycle analysis, samples (1.5 × 10^6 cells) were collected, centrifuged (1400g at 4 °C for 5 min), and washed in trypanosome dilution buffer (TDB). The cell pellets were gently suspended in 50 μL of TDB and permeabilized by adding 1 μL of saponin (25 mg/mL) for 3 min. It was then mixed with another 450 μL of TDB. RNase and propidium iodide (PI) were added to the suspension at final concentrations of 10 and 20 μg/mL, respectively, and the samples were incubated at room temperature for 30 min and then stored at 4 °C. The DNA content of PI-stained cells and the percentage of cells in each phase of the cell cycle (10 000 cells per sample) were analyzed with a Becton Dickinson FACSCalibur flow cytometer (BD Biosciences) using BD CellQuest Pro version 4.0.2 software.
Figure S3. Cell Cycle analysis of parasites upon dosage with NVP-BEZ235 derivative.
Bloodstream form culture of T. b. brucei was subjected to different drugs and analyzed by
Fluorescencecactivated cell sorter (FACS) for DNA content stained by propidium iodide (PI).
Cell cultures were incubated during 18 h with various NVPcBEZ235 derivatives using DMSO as
a control treatment. Mean ± SD of three independent experiments are shown.

[3] = test system: phosphorylated PIs (PIP, PIP3) in T. brucei cells; assay: Phospholipidomics analysis (ES-MS of lipid extracts); type: cell-based, Trypanosoma brucei; conditions: 200 nM, 12 h; negative ion mode scans 950–1300 m/z
Source text: We originally selected 1 to investigate its potential as an trypanocidal agent on the basis of its activity as a PI3K/mTOR inhibitor in mammalian cells and the fact that PI3K activity is essential for the bloodstream form of the T. brucei parasite.[25] In the interest of elucidating the potential mechanism of action against T. brucei cells, we performed a lipidomic analysis to discern if PI kinases are likely targets of these analogues. Lipid extracts of cells grown in the presence of the best compounds at sublethal doses (200 nM) for 12 h were analyzed by ES-MS. […] There were no significant differences in the phosphatidylcholine (PC) and sphingomylein (SM) species between the control and cells grown in the presence of the other compounds (Figure S1). […] Alternatively, as is often the case, changes in the lipid profile could be a reflection in the cells succumbing to (or adapting to) a defect in a major cellular process, such as endo- or exocytosis or cell cycle arrest.
Because these compounds are thought to target PI3K, negative ion mode scans between 950 and 1300 m/z were conducted to focus upon singly and multiply phosphorylated PIs.
Total lipids from mid log phase cells were extracted by the method of Bligh and Dyer.[30] Briefly, mid log phase cells were collected by centrifugation (800g, 10 min), washed with PBS, resuspended in 100 μL of TDB-glucose, transferred to a glass tube containing 375 μL of 1:2 (v/v) CHCl3/MeOH, and vortexed. The sample was agitated vigorously for a further 10–15 min. The sample was made biphasic by the addition of 125 μL of CHCl3 and vortexed, and then 125 μL of H2O was added. The sample was vortexed again and centrifuged at 3000g at rt for 10 min. The lower (organic) phase was transferred into a new glass vial, and the aqueous phase was re-extracted with the fresh lower phase. The resultant lower phase lipid extract was dried under a stream of nitrogen and stored at 4 °C.
Lipid extracts were dissolved in 15 μL of CHCl3/MeOH (1:2) and 15 μL of acetonitrile/isopropanol/water (6:7:2) and analyzed with a triple quadrupole mass spectrometer (Absceix 4000 QTrap) equipped with a nanoelectrospray source. […] The lipid extracts were analyzed in both positive and negative ion modes using a capillary voltage of 1.25 kV. […] Tandem mass spectra (MS/MS) were obtained with collision energies as follows: 35–45 V, PC/SM in positive ion mode, parent-ion scanning of m/z 184; 35–55 V, PI in negative ion mode, parent-ion scanning of m/z 241; 35–65 V, PE in negative ion mode, parent-ion scanning of m/z 196; 20–35 V, PS in negative ion mode, neutral loss scanning of m/z 87; and 40–90 V, for all glycerophospholipids (including PA, PG, and cardiolipin) detected by precursor scanning for m/z 153 in negative ion mode. […]

[4] = test system: bloodstream form of T. brucei; assay: Transferrin uptake (receptor-mediated endocytosis); type: cell-based, Trypanosoma brucei; conditions: concentration twice the EC50, 18 h
Source text: Highly efficient and rapid endocytosis is one of the most important cellular processes for this infective parasite to survive and multiply within the bloodstream of the host, and the activity of TbPI3KIII is essential for this process.[25] To gain insight on the possible target(s) of our compounds, we carried out transferrin uptake experiments to measure receptor-mediated endocytosis after drug treatment. […] Compound 16e induced a phenotype defective in endocytosis (Figure 3); however, the PIP3 molecular species identified (42:7-9) was not the same PIP3 molecular species identified in WT cells (44:9-12).
Two million trypanosomes were harvested and washed with TDB-glucose plus 1% BSA, resuspended in 250 μL in the same buffer, and incubated for 10 min at 37 °C prior to the addition of 5 μg of AlexaFluor 488-conjugated human holo-Tf (Invitrogen). Incubations were carried out for 0 (no Tf) or 3 min at 37 °C, after which cells were immediately fixed in 4 °C in 1% PFA diluted in cold PBS for at least 1 h. Parasites were finally washed twice with PBS and analyzed with a Becton Dickinson FACSCalibur flow cytometer (BD Biosciences) using BD CellQuest Pro version 4.0.2 software.

ChromlogD assay = type: physicochemical; conditions: pH 7.4
Protocol: page 13: PHYSICOCHEMICAL PROPERTIES ASSAYS […] phosphate buffered saline, equilibrated for 1 hour at room temperature, filtered through Millipore […] filter plates (MSSL BPC). The filtrate is quantified by suitably calibrated flow injection ChemicLuminescent Nitrogen Detection.1 The standard error of the CLND solubility […] DMSO stock solution. GSK inchouse Artificial Membrane Permeability Assay: […] in 1% cholesterol decane solution was applied to a […], 0.4um, PCF culture plate. 250 μL and 100 μL 50 mM phosphate buffer pH 7.4 with 0.5% […] applied to the […] in DMSO was added to the donor compartment. The assay was incubated at RT for 3 hours. Samples from both donor and receiver compartments were analyzed by HPLC with UV detection at 215 and 254 nm and permeability was calculated. The permeability (logPapp) measuring how fast molecules pass through the black lipid membrane is expressed in nm/s. ChromlogD assay. The Chromatographic Hydrophobicity Index (CHI)2 values were measured using reversed phase HPLC column (Luna C18 (2),Phenomenex, UK) with fast acetonitrile gradient at starting mobile phase of pH = 7.4. CHI values are derived directly from the gradient retention times by using a calibration line obtained for standard compounds. The CHI value approximates to the volume % organic concentration when the compound elutes. CHI is linearly transformed into ChromlogD by leastcsquare fitting of experimental CHI values to calculated ClogP values for over 20K research compounds using the following formula: ChromlogD = 0.0857CHIc2.00. The average error of the assay is ±3 CHI unit or ±0.25 ChromlogD. S13

[5] = Table 2, average of two replicates, read-out: T brucei EC50
[6] = Table 4, measured value (outside parentheses)

Row | Compound | EC50 ([1]; Trypanosoma brucei, read-out: EC50 against T. brucei) | cell cycle progression [2] | phosphorylated PI (PIP) levels vs control cells [3] | transferrin uptake / endocytosis [4] | chromatographic logD (ChromlogD assay) | EC50 [1, 5] | HepG2 TC50 (HepG2 cell line) | chromatographic logD (ChromlogD assay; [6])
1 | CC(C)(C#N)c1ccc(Nc2c(N)cnc3ccc(-c4cnc5ccccc5c4)cc23)cc1 [Compound 20, 2-(4-((3′-Amino-[3,6′-biquinolin]-4′-yl)amino)phenyl)-2-methylpropanenitrile] | 0.767 µM | – | – | – | – | – | – | –
2 | Cn1c(=O)n(-c2ccc(C(C)(C)C#N)cc2)c2c3cc(-c4cnc5ccccc5c4)ccc3ncc21 [Compound 1, NVP-BEZ235, reference compound] | – | did not significantly alter cell cycle progression | almost complete absence of all phosphorylated PIs | inhibited endocytosis dramatically | 4.75 | – | – | –
3 | 1-(4-((4-Methylpiperazin-1-yl)methyl)phenyl)-8-(pyridin-4-yl)-1H-imidazo[4,5-c]quinolin-2(3H)-one [Compound 16j] | – | – | – | – | – | 3.35 µM | >7.6 µM | –
4 | COc1ccc(-n2c(=O)n(C)c3cnc4ccc(-c5ccncc5)cc4c32)cc1 [Compound 16g, 1-(4-Methoxyphenyl)-3-methyl-8-(pyridin-4-yl)-1H-imidazo[4,5-c]quinolin-2(3H)-one] | – | did not significantly alter cell cycle progression | almost complete absence of all phosphorylated PIs | inhibited endocytosis dramatically | – | – | – | 3.03
5 | 1-Methyl-8-(pyridin-4-yl)-1H-imidazo[4,5-c]quinolin-2(3H)-one [Compound 16k] | – | – | – | – | – | 3.27 µM | >20 µM | –
6 | Cc1ccc(-n2c(=O)n(C)c3cnc4ccc(-c5ccncc5)cc4c32)cc1 [Compound 16e, 3-Methyl-8-(pyridin-4-yl)-1-(p-tolyl)-1H-imidazo[4,5-c]quinolin-2(3H)-one] | – | did not significantly alter cell cycle progression | significant (albeit incomplete) reduction in PIP levels | inhibited endocytosis dramatically | – | – | – | 3.5

Source: publication PMC4099174 (Journal of Medicinal Chemistry, 2014)
